In patent publication US20090312288A1 (TAKEDA PHARMACEUTICAL COMPANY LIMITED, priority 2008, published 2009) one finds IC50 data, which are given here for 14 compounds.

What is called IC50 is the midpoint of a concentration-inhibition curve.

Some results are limits rather than exact numbers.

Sequence of Aurora B/INCENP (Q96GD4 whole entry): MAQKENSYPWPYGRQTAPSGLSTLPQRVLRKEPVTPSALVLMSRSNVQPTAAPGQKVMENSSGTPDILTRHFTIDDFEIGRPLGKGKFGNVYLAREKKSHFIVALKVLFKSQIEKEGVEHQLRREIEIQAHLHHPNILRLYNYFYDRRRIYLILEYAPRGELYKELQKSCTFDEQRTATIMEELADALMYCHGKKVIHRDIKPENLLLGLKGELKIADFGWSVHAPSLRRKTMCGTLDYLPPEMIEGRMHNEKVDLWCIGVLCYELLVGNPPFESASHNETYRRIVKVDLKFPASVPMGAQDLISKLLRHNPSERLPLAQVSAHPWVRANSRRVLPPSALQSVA
Sequence of Aurora B/INCENP (Q9NQS7 whole entry partner): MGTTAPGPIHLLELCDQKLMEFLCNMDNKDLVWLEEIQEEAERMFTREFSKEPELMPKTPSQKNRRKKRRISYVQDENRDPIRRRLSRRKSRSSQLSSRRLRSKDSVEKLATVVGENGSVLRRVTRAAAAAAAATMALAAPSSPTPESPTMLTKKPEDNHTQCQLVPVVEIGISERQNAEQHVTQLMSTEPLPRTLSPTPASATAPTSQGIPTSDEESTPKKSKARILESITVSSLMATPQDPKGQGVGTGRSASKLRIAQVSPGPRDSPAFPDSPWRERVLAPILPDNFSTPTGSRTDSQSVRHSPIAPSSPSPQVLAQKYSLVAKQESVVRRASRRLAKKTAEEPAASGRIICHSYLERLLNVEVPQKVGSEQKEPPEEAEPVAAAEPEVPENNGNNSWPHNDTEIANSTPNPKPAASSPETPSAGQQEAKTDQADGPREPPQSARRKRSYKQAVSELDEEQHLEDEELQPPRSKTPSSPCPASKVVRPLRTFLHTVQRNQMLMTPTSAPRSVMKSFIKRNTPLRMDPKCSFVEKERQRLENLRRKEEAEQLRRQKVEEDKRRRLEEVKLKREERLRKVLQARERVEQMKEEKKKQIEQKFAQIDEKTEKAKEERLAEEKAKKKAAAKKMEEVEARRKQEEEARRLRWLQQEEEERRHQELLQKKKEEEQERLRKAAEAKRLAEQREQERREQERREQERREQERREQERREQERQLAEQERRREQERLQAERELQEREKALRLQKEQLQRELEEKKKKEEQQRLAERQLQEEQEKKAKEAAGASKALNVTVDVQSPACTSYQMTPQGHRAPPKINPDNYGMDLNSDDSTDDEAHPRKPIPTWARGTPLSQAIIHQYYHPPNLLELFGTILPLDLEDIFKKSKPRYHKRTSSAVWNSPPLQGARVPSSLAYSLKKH

This assay concerns the target Aurora B/INCENP (Homo sapiens, UniProt Q96GD4). The assay is described as follows: Determination of inhibition of AIK: Aurora B/INCENP direct fluorescence polarization (IMAP) assay. In kind it is biochemical. The conditions noted are these: 10 uM ATP, 0.8 nM Aurora B/INCENP; values given as bins; read-out: IC50 of Exemplified Compounds Against AIK B. On the procedure:
Detection of the reaction product is performed by addition of Progressive IMAP binding reagent (Molecular Devices). Reaction product may be determined quantitatively by FP using an Analyst HT plate reader (Molecular Devices) with an excitation wavelength at 485 nm and emission at 530 nm and using a Fluorescein 505 dichroic mirror.
The assay reaction may be initiated as follows: 2 ul of (3×) 300 nM Fl-Peptide/30 uM ATP was added to each well of the plate, followed by the addition of 2 ul of (3×) inhibitor (2 fold serial dilutions for 11 data points for each inhibitor) containing 15% DMSO. Two microliters of (3×) 2.4 nM AuroraB/INCENP solution may be added to initiate the reaction (final enzyme concentration was 0.8 nM for Aurora B/INCENP). The reaction mixture may then be incubated at room temperature for 45 min, and quenched and developed by addition of 20 ul of 1 to 400 diluted Progressive IMAP binding reagent in 1× proprietary Progressive IMAP binding buffer A. Fluorescence polarization readings of the resulting reaction mixtures may be measured after a 60-minute incubation at room temperature.
IC50 values may be calculated by non-linear curve fitting of the compound concentrations and fluorescent polarization values to the standard IC50 equation.
Take `CCS(=O)(=O)c1cccc(-c2ccc(OCC#N)c3[nH]c4ncc(C)cc4c23)c1` [Compound 209, 2-(5-(3-(ethylsulfonyl)phenyl)-3-methyl-9H-pyrido[2,3-b]indol-8-yloxy)acetonitrile]: the IC50 was less than 4 nM. Regarding `CCS(=O)(=O)c1cccc(-c2ccc(OCCCO)c3[nH]c4ncc(Cl)cc4c23)c1` [Compound 291, 3-(3-chloro-5-(3-(ethylsulfonyl)phenyl)-9H-pyrido[2,3-b]indol-8-yloxy)propan-1-ol], the IC50 was less than 4 nM.

For `CCS(=O)(=O)c1cccc(-c2cnc(OCC(C)(C)O)c3[nH]c4ncc(C)cc4c23)c1` [Compound 58, 1-[5-(3-Ethanesulfonyl-phenyl)-3-methyl-9H-dipyrido[2,3-b;4′,3′-d]pyrrol-8-yloxy]-2-methyl-propan-2-ol], the IC50 is 8.6 to 13 nM.

Regarding `Cc1cnc2[nH]c3c(C)ccc(-c4cccc(C(=O)NC5CC5)c4)c3c2c1` [Compound 20, N-cyclopropyl-3-(3,8-dimethyl-9H-pyrido[2,3-b]indol-5-yl)benzamide], the IC50 is 4 to 5.5 nM. Consider `CCS(=O)(=O)c1cccc(-c2ccc(O[C@@H](C)COP(=O)(O)O)c3[nH]c4ncc(C)cc4c23)c1` [Compound 391, (S)-2-(5-(3-(ethylsulfonyl)phenyl)-3-methyl-9H-pyrido[2,3-b]indol-8-yloxy)propyl dihydrogen phosphate], for which the IC50 lay in the range of 4 to 5.5 nM. Turning to `Cc1cnc2[nH]c3c(OCCCN(C)C)ccc(-c4cccc(S(=O)(=O)C5CC5)c4)c3c2c1` [Compound 194, 3-(5-(3-(cyclopropylsulfonyl)phenyl)-3-methyl-9H-pyrido[2,3-b]indol-8-yloxy)-N,N-dimethylpropan-1-amine], the IC50 lay in the range of 4 to 5.5 nM.

`CCS(=O)(=O)c1cccc(-c2ccc(OC[C@H](O)CN(C)C)c3[nH]c4ncc(C)cc4c23)c1` [Compound 232, (R)-1-(dimethylamino)-3-(5-(3-(ethylsulfonyl)phenyl)-3-methyl-9H-pyrido[2,3-b]indol-8-yloxy)propan-2-ol]: the IC50 was in the range of 5.6 to 8.5 nM. For the compound `CCN(CC)CCNC(=O)c1cc(-c2cccc(S(=O)(=O)CC)c2)c2c([nH]c3ncc(C)cc32)c1C` [Compound 262, N-(2-(diethylamino)ethyl)-5-(3-(ethylsulfonyl)phenyl)-3,8-dimethyl-9H-pyrido[2,3-b]indole-7-carboxamide], the IC50 fell in the range of 8.6 to 13 nM. `CCS(=O)(=O)c1cccc(-c2cc(C(=O)NC3CCN(C)CC3)c(C)c3[nH]c4ncc(C)cc4c23)c1` [Compound 88, 5-(3-(ethylsulfonyl)phenyl)-3,8-dimethyl-N-(1-methylpiperidin-4-yl)-9H-pyrido[2,3-b]indole-7-carboxamide]: the half-inhibitory concentration (IC50) lay within 8.6 to 13 nM.

Turning to `CCS(=O)(=O)c1cccc(-c2ccc(OCC3CCN(C)CC3)c3[nH]c4ncc(F)cc4c23)c1` [Compound 287, 5-(3-(ethylsulfonyl)phenyl)-3-fluoro-8-((1-methylpiperidin-4-yl)methoxy)-9H-pyrido[2,3-b]indole], the IC50 lay within 5.6 to 8.5 nM. As for `COc1ccc(-c2cccc(S(=O)(=O)N3CCCC3)c2)c2c1[nH]c1ncc(C)cc12` [Compound 159, 8-methoxy-3-methyl-5-(3-(pyrrolidin-1-ylsulfonyl)phenyl)-9H-pyrido[2,3-b]indole], the IC50 lay within 8.6 to 13 nM. As for `CCS(=O)(=O)c1cccc(-c2ccc(O)c3[nH]c4ncc(C)cc4c23)c1` [Compound 158, 5-(3-(ethylsulfonyl)phenyl)-3-methyl-9H-pyrido[2,3-b]indol-8-ol], the IC50 is less than 4 nM. Regarding `CCS(=O)(=O)c1cccc(-c2cnc(OCCO)c3[nH]c4ncc(C)cc4c23)c1` [Compound 53, 2-[5-(3-Ethanesulfonyl-phenyl)-3-methyl-9H-dipyrido[2,3-b;4′,3′-d]pyrrol-8-yloxy]-ethanol], the IC50 lay in the range of 4 to 5.5 nM.

With `Cc1cnc2[nH]c3c(OC[C@@H](CN4CCOCC4)OP(=O)(O)O)ccc(-c4cccc(S(=O)(=O)C5CC5)c4)c3c2c1` [Compound 382, (R)-1-(5-(3-(cyclopropylsulfonyl)phenyl)-3-methyl-9H-pyrido[2,3-b]indol-8-yloxy)-3-morpholinopropan-2-yl dihydrogen phosphate], the IC50 is less than 4 nM.
